# According to PubChem BioAssay AID1259408 (Genetic Toxicology Data Bank (GENE-TOX), 2018):
# The source made the active and inactive calls. The rule behind the calls is not given here.
# Tested on: GENE-TOX genotoxicity assays, various organisms and cells
# Assay: GENE-TOX mutagenicity studies
# Conditions: for call: Assay Type: In vivo carcinogenicity studies
# [1] = Species/Cell Type: Chinese hamster lung (V79) cells, Assay Type: Forward gene mutation at the HPRT or ouabain locus, Assay Code: V79+, Evaluation Type: Evaluation A (Pre-1980)
# [2] = Species/Cell Type: Nonhuman, Assay Code: CCG+L, Evaluation Type: Evaluation A (Pre-1980)
# [3] = Species/Cell Type: Nonhuman, Assay Type: Sister-chromatid exchange (SCE) in vitro, Assay Code: SC2+D, Dose Response: With dose response, Evaluation Type: Evaluation B (Post-1980)
# [4] = Species/Cell Type: Salmonella typhimurium (one or more of the five standard strains: TA98, TA100, TA1535, TA1537, and TA1538), Assay Type: Histidine reverse gene mutation, Ames assay, Assay Code: SAL+*, Activation: With metabolic activation, Evaluation Type: Evaluation A (Pre-1980)
# [5] = Species/Cell Type: Salmonella typhimurium (one or more of the five standard strains: TA98, TA100, TA1535, TA1537, and TA1538), Assay Type: Histidine reverse gene mutation, Ames assay, Assay Code: SALT, Evaluation Type: Evaluation A (Pre-1980)
# [6] = Species/Cell Type: Nonhuman, Assay Code: CCG+, Evaluation Type: Evaluation A (Pre-1980)
# [7] = Species/Cell Type: Rodents, Sex: Male, Assay Type: Dominant lethal test, Assay Code: DLT-, Evaluation Type: Evaluation A (Pre-1980)
# [8] = Species/Cell Type: Saccharomyces cerevisiae, Assay Type: Mitotic recombination or gene conversion, Assay Code: YEC-, Evaluation Type: Evaluation A (Pre-1980)
# [9] = Species/Cell Type: Allium cepa, Assay Type: Chromosome aberrations, Assay Code: ALC+D, Dose Response: With dose response, Evaluation Type: Evaluation A (Pre-1980)
# [10] = Species/Cell Type: Nonhuman, Assay Type: Sister-chromatid exchange (SCE) in vivo, Assay Code: SC3+D, Dose Response: With dose response, Evaluation Type: Evaluation B (Post-1980)
compound,measurement,setting,value
ClC1=C(Cl)[C@]2(Cl)C3C(Cl)C(Cl)CC3[C@@]1(Cl)C2(Cl)Cl (some centres not stated),mutagenic call,[1],active; positive
same,call,[2],active; positive
same,mutagenic call,"Species/Cell Type: Rodents, Sex: Male, Assay Type: Dominant lethal test, Assay Code: DLTT, Evaluation Type: Evaluation A (Pre-1980)",no conclusion
same,mutagenic call,"Species/Cell Type: Zea mays (corn), Assay Type: Gene mutation, Assay Code: ZEM+, Evaluation Type: Evaluation A (Pre-1980)",active; positive
C=COCC,mutagenic call,"Species/Cell Type: Nonhuman, Assay Type: Sister-chromatid exchange (SCE) in vitro, Assay Code: SC2+, Evaluation Type: Evaluation B (Post-1980)",active; positive
Cc1c2ccccc2cc2ccc3ccccc3c12,mutagenic call,[3],active; positive
same,mutagenic call,[4],active; positive
Cc1cc2c3ccccc3ccc2c2ccccc12,mutagenic call,[4],active; positive
NC(=O)N(CC(=O)O)N=O,mutagenic call,[5],no conclusion
NC[C@H]1O[C@H](O[C@H]2[C@H](O)[C@@H](O[C@H]3O[C@H](CO)[C@@H](O)[C@H](N)[C@H]3O)[C@H](N)C[C@@H]2N)[C@H](N)[C@@H](O)[C@@H]1O,mutagenic call,"Species/Cell Type: Saccharomyces cerevisiae, Assay Type: Mitotic recombination or gene conversion, Assay Code: YEH-, Evaluation Type: Evaluation A (Pre-1980)",inactive; negative
Nc1nc(-c2cc([N+](=O)[O-])cs2)cs1,mutagenic call,"Species/Cell Type: Salmonella typhimurium (one or more of the five standard strains: TA98, TA100, TA1535, TA1537, and TA1538), Assay Type: Histidine reverse gene mutation, Ames assay, Assay Code: SAL+, Evaluation Type: Evaluation A (Pre-1980)",active; positive
OCC(Cl)(Cl)Cl,mutagenic call,[5],no conclusion
CN(C)N,mutagenic call,"Species/Cell Type: Human diploid fibroblasts, Assay Type: Unscheduled DNA synthesis (UDS) in vitro, DNA effects, Assay Code: UDH-*, Activation: With metabolic activation, Evaluation Type: Evaluation A (Pre-1980)",inactive; negative
same,mutagenic call,"Species/Cell Type: Mammalian polychromatic erythrocytes, Assay Type: Micronucleus test, chromosome aberrations, Assay Code: MNTT, Evaluation Type: Evaluation A (Pre-1980)",no conclusion
same,mutagenic call,"Species/Cell Type: Mouse lymphoma (L5178Y) cells, Assay Type: Forward gene mutation at the thymidine kinase (TK) locus, chromosome aberrations, Assay Code: L51-*, Activation: With metabolic activation, Evaluation Type: Evaluation A (Pre-1980)",inactive; negative
same,mutagenic call,"Species/Cell Type: Mouse, Sex: Male, Assay Type: Sperm morphology, Assay Code: SPI-, Evaluation Type: Evaluation A (Pre-1980)",inactive; negative
same,call,[6],active; positive
same,mutagenic call,[7],inactive; negative
same,mutagenic call,[8],inactive; negative
same,mutagenic call,[4],active; positive
same,mutagenic call,"Species/Cell Type: Syrian hamster embryo (SA7/SHE) cells, Assay Type: Cell transformation, viral enhanced, Assay Code: CT7+, Evaluation Type: Evaluation A (Pre-1980)",active; positive
COc1cc2c(c3oc(=O)c4c(c13)CCC4=O)[C@@H]1C[C@H](O)O[C@@H]1O2,mutagenic call,[5],no conclusion
CCn1c(=O)n(C)c2c(=O)n(C)c(=O)n(C)c21,mutagenic call,[9],active; positive
Cc1c2ccccc2c(C)c2c3c(ccc12)[C@H](O)[C@@H](O)C=C3,mutagenic call,[1],active; positive
same,mutagenic call,"Species/Cell Type: Mouse prostate cells, Assay Type: Cell transformation, Assay Code: CTM+, Evaluation Type: Evaluation A (Pre-1980)",active; positive
same,call,[2],active; positive
OCC(Br)(Br)Br,mutagenic call,"Species/Cell Type: Rodents, Sex: Female, Assay Type: Dominant lethal test, Assay Code: DLTF-, Evaluation Type: Evaluation A (Pre-1980)",inactive; negative
same,mutagenic call,[7],inactive; negative
Cc1cc(C)c(N=Nc2c(O)c(S(=O)(=O)O)cc3cc(S(=O)(=O)O)ccc23)cc1C,mutagenic call,"Species/Cell Type: Bacillus subtilis (H17 vs M45), Assay Type: Rec-assay, spot test, DNA effects (bacterial DNA repair), Assay Code: REWT, Evaluation Type: Evaluation A (Pre-1980)",no conclusion
same,mutagenic call,"Species/Cell Type: Bacillus subtilis (H17 vs M45T), Assay Type: Rec-assay, spot test, DNA effects (bacterial DNA repair), Assay Code: REXT, Evaluation Type: Evaluation A (Pre-1980)",no conclusion
same,call,[6],active; positive
same,mutagenic call,[8],inactive; negative
same,mutagenic call,"Species/Cell Type: Salmonella typhimurium (one or more of the five standard strains: TA98, TA100, TA1535, TA1537, and TA1538), Assay Type: Histidine reverse gene mutation, Ames assay, Assay Code: SAL-, Evaluation Type: Evaluation A (Pre-1980)",inactive; negative
FC1(F)C(F)(F)C(F)(F)C1(F)F,mutagenic call,"Species/Cell Type: Drosophila melanogaster, Assay Type: Sex-linked recessive lethal gene mutation, Assay Code: SRLT, Evaluation Type: Evaluation A (Pre-1980)",no conclusion
[Hg][c]1ccccc1,mutagenic call,[9],active; positive
CCN(CC)CCCNC(=O)C(=O)N/N=C/c1ccc([N+](=O)[O-])o1,mutagenic call,"Species/Cell Type: Escherichia coli WP2 UVRA, Assay Type: Tryptophan reverse gene mutation, Assay Code: WPU+D, Dose Response: With dose response, Evaluation Type: Evaluation A (Pre-1980)",active; positive
O=C(OC[C@@H]1O[C@H](OC(=O)c2cc(O)c(O)c(OC(=O)c3cc(O)c(O)c(O)c3)c2)[C@@H](OC(=O)c2cc(O)c(O)c(OC(=O)c3cc(O)c(O)c(O)c3)c2)[C@H](OC(=O)c2cc(O)c(O)c(OC(=O)c3cc(O)c(O)c(O)c3)c2)[C@H]1OC(=O)c1cc(O)c(O)c(OC(=O)c2cc(O)c(O)c(O)c2)c1)c1cc(O)c(O)c(OC(=O)c2cc(O)c(O)c(O)c2)c1,mutagenic call,"Species/Cell Type: Escherichia coli polA (W3119 vs P3478), Assay Type: Rec-assay, DNA effects (bacterial DNA repair), Assay Code: RE1T, Evaluation Type: Evaluation A (Pre-1980)",no conclusion
same,mutagenic call,[10],active; positive
CN[C@@H]1[C@H](O[C@H]2[C@H](O[C@H]3[C@H](O)[C@@H](O)[C@H](N=C(N)N)[C@@H](O)[C@@H]3N=C(N)N)O[C@@H](C)[C@]2(O)CO)O[C@@H](CO)[C@H](O)[C@H]1O,mutagenic call,"Species/Cell Type: Vicia faba, Assay Type: Chromosome aberrations, Assay Code: VIC-, Evaluation Type: Evaluation A (Pre-1980)",inactive; negative
Cc1cccn2c1nc1ccc(N)nc12,mutagenic call,"Species/Cell Type: Human, Assay Type: Sister-chromatid exchange (SCE) in vitro, Assay Code: SC1+D*, Activation: With metabolic activation, Dose Response: With dose response, Evaluation Type: Evaluation B (Post-1980)",active; positive
CCN(CC)C(=O)/C(Cl)=C(\C)OP(=O)(OC)OC,mutagenic call,"Species/Cell Type: Hordeum vulgare (barley), Assay Type: Chromosome aberrations, Assay Code: HOC+D, Dose Response: With dose response, Evaluation Type: Evaluation A (Pre-1980)",active; positive
same,mutagenic call,"Species/Cell Type: Mammalian polychromatic erythrocytes, Assay Type: Micronucleus test, chromosome aberrations, Assay Code: MNT+, Evaluation Type: Evaluation B (Post-1980)",active; positive
same,mutagenic call,"Species/Cell Type: Vicia faba, Assay Type: Chromosome aberrations, Assay Code: VIC+, Evaluation Type: Evaluation A (Pre-1980)",active; positive
c1ccccc1,mutagenic call,"Species/Cell Type: Human lymphocytes or leukocytes, Assay Type: Chromosome aberrations in vitro, Assay Code: CY7+, Evaluation Type: Evaluation A (Pre-1980)",active; positive
same,mutagenic call,"Species/Cell Type: Human lymphocytes or leukocytes, Assay Type: Chromosome aberrations in vivo, Assay Code: CY8+, Evaluation Type: Evaluation A (Pre-1980)",active; positive
same,mutagenic call,"Species/Cell Type: Human lymphocytes, Assay Type: Sister-chromatid exchange (SCE) in vitro, Assay Code: SCL+*, Activation: With metabolic activation, Evaluation Type: Evaluation B (Post-1980)",active; positive
same,mutagenic call,"Species/Cell Type: Human lymphocytes, Assay Type: Sister-chromatid exchange (SCE) in vitro, Assay Code: SCL-, Evaluation Type: Evaluation A (Pre-1980)",inactive; negative
same,mutagenic call,"Species/Cell Type: Human lymphocytes, Assay Type: Sister-chromatid exchange (SCE) in vivo, Assay Code: SCY+, Evaluation Type: Evaluation B (Post-1980)",active; positive
same,mutagenic call,"Species/Cell Type: Human, Assay Type: Sister-chromatid exchange (SCE) in vitro, Assay Code: SC1+*, Activation: With metabolic activation, Evaluation Type: Evaluation B (Post-1980)",active; positive
same,mutagenic call,"Species/Cell Type: Human, Assay Type: Sister-chromatid exchange (SCE) in vitro, Assay Code: SC1-, Evaluation Type: Evaluation A (Pre-1980)",inactive; negative
same,mutagenic call,"Species/Cell Type: Mammalian polychromatic erythrocytes, Assay Type: Micronucleus test, chromosome aberrations, Assay Code: MNT+, Evaluation Type: Evaluation A (Pre-1980)",active; positive
same,mutagenic call,"Species/Cell Type: Mouse, Sex: Male, Assay Type: Sperm morphology, Assay Code: SPI+, Evaluation Type: Evaluation A (Pre-1980)",active; positive
same,call,[6],active; positive
same,mutagenic call,[3],active; positive
same,mutagenic call,[10],active; positive
same,mutagenic call,"Species/Cell Type: Syrian hamster embryo (SA7/SHE) cells, Assay Type: Cell transformation, viral enhanced, Assay Code: CT7-, Evaluation Type: Evaluation A (Pre-1980)",inactive; negative
same,mutagenic call,"Species/Cell Type: Tradescantia species, Assay Type: Gene mutation, Assay Code: TRM+D, Dose Response: With dose response, Evaluation Type: Evaluation A (Pre-1980)",active; positive
